Reference: the supplement of paper PMC10883282
± gives the standard deviation of the averaged measurements.

Assays:
Test in all cases: relative viability vs DMSO control (72 h) (fraction); higher = more viable cells
A204 = tested on: A204
Summary of the method: (§1)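 Sarcoma cell lines were seeded in 384-well plates at densities chosen for 80–90% confluence, then 24 h later given 2.5 µl of serially diluted compound drawn from source plates spanning 10 mM to 0.0002 mM. They were held 72 h at 37 °C, 5% CO2, with 0.1% DMSO vehicle and a 5 µM positive control included. Relative viability was read with ATPLite as percent growth and averaged over up to triplicate wells. Rescaling placed full at 1 and none at 0.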

G401 = tested on: G401
Summary of the method: as §1

HS729 = tested on: HS729
Summary of the method: as §1

KHOS-240S = tested on: KHOS-240S
Summary of the method: as §1

MES-SA = tested on: MES-SA
Summary of the method: as §1

RD = tested on: RD
Summary of the method: as §1

SK-ES-1 = tested on: SK-ES-1
Summary of the method: as §1

SK-LMS-1 = tested on: SK-LMS-1
Summary of the method: as §1

SW1353 = tested on: SW1353
Summary of the method: as §1

SW872 = tested on: SW872
Summary of the method: as §1

SW982 = tested on: SW982
Summary of the method: as §1

VA-ES-BJ = tested on: VA-ES-BJ
Summary of the method: as §1

CC(C)(O)CNc1nc(Nc2ccnc(C(F)(F)F)c2)nc(-c2cccc(C(F)(F)F)n2)n1 [Enasidenib]
Conditions	relative viability
A204, 0.00017 µM	1.12 ± 0.02
A204, 0.00051 µM	1.08 ± 0.043
A204, 0.00152 µM	1.11 ± 0.034
A204, 0.00457 µM	1.08 ± 0.019
A204, 0.01372 µM	1.1 ± 0.022
A204, 0.04115 µM	1.11 ± 0.017
A204, 0.1235 µM	1.1 ± 0.038
A204, 0.3704 µM	1.11 ± 0.034
A204, 1.111 µM	1.11 ± 0.072
A204, 3.333 µM	0.99 ± 0.057
A204, 10 µM	0.7231 ± 0.0064
G401, 0.00017 µM	0.984 ± 0.029
G401, 0.00051 µM	0.973 ± 0.062
G401, 0.00152 µM	0.984 ± 0.12
G401, 0.00457 µM	1.03 ± 0.031
G401, 0.01372 µM	1.025 ± 0.0068
G401, 0.04115 µM	1.01 ± 0.0082
G401, 0.1235 µM	1.05 ± 0.023
G401, 0.3704 µM	1.02 ± 0.049
G401, 1.111 µM	0.98 ± 0.011
G401, 3.333 µM	0.994 ± 0.023
G401, 10 µM	0.958 ± 0.055
HS729, 0.00017 µM	0.966 ± 0.013
HS729, 0.00051 µM	0.974 ± 0.025
HS729, 0.00152 µM	0.995 ± 0.019
HS729, 0.00457 µM	1 ± 0.035
HS729, 0.01372 µM	1.002 ± 0.0059
HS729, 0.04115 µM	0.985 ± 0.061
HS729, 0.1235 µM	1.02 ± 0.011
HS729, 0.3704 µM	0.941 ± 0.022
HS729, 1.111 µM	0.994 ± 0.022
HS729, 3.333 µM	1.01 ± 0.031
HS729, 10 µM	0.928 ± 0.043
KHOS-240S, 0.00017 µM	1.08 ± 0.017
KHOS-240S, 0.00051 µM	1.06 ± 0.012
KHOS-240S, 0.00152 µM	1.053 ± 0.0022
KHOS-240S, 0.00457 µM	1.06 ± 0.046
KHOS-240S, 0.01372 µM	1.08 ± 0.018
KHOS-240S, 0.04115 µM	1.073 ± 0.0095
KHOS-240S, 0.1235 µM	1.09 ± 0.033
KHOS-240S, 0.3704 µM	1.09 ± 0.042
KHOS-240S, 1.111 µM	1.09 ± 0.02
KHOS-240S, 3.333 µM	1.081 ± 0.0076
KHOS-240S, 10 µM	0.989 ± 0.044
MES-SA, 0.00017 µM	0.911 ± 0.012
MES-SA, 0.00051 µM	0.947 ± 0.03
MES-SA, 0.00152 µM	0.958 ± 0.024
MES-SA, 0.00457 µM	0.956 ± 0.026
MES-SA, 0.01372 µM	0.9539 ± 0.0027
MES-SA, 0.04115 µM	0.932 ± 0.033
MES-SA, 0.1235 µM	0.9612 ± 0.0088
MES-SA, 0.3704 µM	0.945 ± 0.029
MES-SA, 1.111 µM	0.926 ± 0.03
MES-SA, 3.333 µM	0.918 ± 0.0091
MES-SA, 10 µM	0.808 ± 0.024
RD, 0.00017 µM	1.11 ± 0.072
RD, 0.00051 µM	1.125 ± 0.0051
RD, 0.00152 µM	1.11 ± 0.044
RD, 0.00457 µM	1.08 ± 0.035
RD, 0.01372 µM	1.1 ± 0.041
RD, 0.04115 µM	1.1 ± 0.062
RD, 0.1235 µM	1.11 ± 0.054
RD, 0.3704 µM	1.08 ± 0.057
RD, 1.111 µM	1.09 ± 0.043
RD, 3.333 µM	1.09 ± 0.067
RD, 10 µM	1.04 ± 0.047
SK-ES-1, 0.00017 µM	1.02 ± 0.074
SK-ES-1, 0.00051 µM	1.04 ± 0.083
SK-ES-1, 0.00152 µM	1.03 ± 0.095
SK-ES-1, 0.00457 µM	1.04 ± 0.11
SK-ES-1, 0.01372 µM	1.02 ± 0.11
SK-ES-1, 0.04115 µM	0.996 ± 0.1
SK-ES-1, 0.1235 µM	1.02 ± 0.14
SK-ES-1, 0.3704 µM	0.968 ± 0.15
SK-ES-1, 1.111 µM	0.921 ± 0.13
SK-ES-1, 3.333 µM	0.893 ± 0.16
SK-ES-1, 10 µM	0.663 ± 0.058
SK-LMS-1, 0.00017 µM	1.03 ± 0.034
SK-LMS-1, 0.00051 µM	0.979 ± 0.052
SK-LMS-1, 0.00152 µM	1.01 ± 0.059
SK-LMS-1, 0.00457 µM	1.02 ± 0.065
SK-LMS-1, 0.01372 µM	1.01 ± 0.062
SK-LMS-1, 0.04115 µM	1.01 ± 0.043
SK-LMS-1, 0.1235 µM	1.02 ± 0.044
SK-LMS-1, 0.3704 µM	1.06 ± 0.086
SK-LMS-1, 1.111 µM	1.13 ± 0.024
SK-LMS-1, 3.333 µM	1.11 ± 0.077
SK-LMS-1, 10 µM	0.83 ± 0.033
SW872, 0.00017 µM	1.04 ± 0.033
SW872, 0.00051 µM	1.07 ± 0.032
SW872, 0.00152 µM	1.08 ± 0.021
SW872, 0.00457 µM	1.07 ± 0.016
SW872, 0.01372 µM	1.08 ± 0.029
SW872, 0.04115 µM	1.06 ± 0.036
SW872, 0.1235 µM	1.06 ± 0.02
SW872, 0.3704 µM	1.068 ± 0.0059
SW872, 1.111 µM	1.07 ± 0.0047
SW872, 3.333 µM	1.07 ± 0.012
SW872, 10 µM	1.06 ± 0.021
SW982, 0.00017 µM	1.04 ± 0.02
SW982, 0.00051 µM	1.04 ± 0.015
SW982, 0.00152 µM	1.05 ± 0.0093
SW982, 0.00457 µM	1.06 ± 0.027
SW982, 0.01372 µM	1.05 ± 0.02
SW982, 0.04115 µM	1.06 ± 0.016
SW982, 0.1235 µM	1.06 ± 0.027
SW982, 0.3704 µM	1.102 ± 0.0029
SW982, 1.111 µM	1.129 ± 0.01
SW982, 3.333 µM	1.18 ± 0.019
SW982, 10 µM	1.22 ± 0.035
SW1353, 0.00017 µM	0.997 ± 0.016
SW1353, 0.00051 µM	1.03 ± 0.016
SW1353, 0.00152 µM	0.99 ± 0.031
SW1353, 0.00457 µM	1.02 ± 0.041
SW1353, 0.01372 µM	1.03 ± 0.02
SW1353, 0.04115 µM	1.01 ± 0.0077
SW1353, 0.1235 µM	1.01 ± 0.03
SW1353, 0.3704 µM	1.04 ± 0.02
SW1353, 1.111 µM	0.9847 ± 0.0047
SW1353, 3.333 µM	0.994 ± 0.047
SW1353, 10 µM	0.86 ± 0.042
VA-ES-BJ, 0.00017 µM	1.04 ± 0.021
VA-ES-BJ, 0.00051 µM	1.06 ± 0.025
VA-ES-BJ, 0.00152 µM	1.05 ± 0.036
VA-ES-BJ, 0.00457 µM	1.03 ± 0.04
VA-ES-BJ, 0.01372 µM	1.06 ± 0.04
VA-ES-BJ, 0.04115 µM	1.05 ± 0.043
VA-ES-BJ, 0.1235 µM	1.06 ± 0.038
VA-ES-BJ, 0.3704 µM	1.07 ± 0.051
VA-ES-BJ, 1.111 µM	1.05 ± 0.033
VA-ES-BJ, 3.333 µM	1.02 ± 0.025
VA-ES-BJ, 10 µM	0.976 ± 0.031
